# PubChem BioAssay (NCI)
#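 Interpolation was linear, between the two tested concentrations surrounding the appropriate level; five concentrations were tested over 48 hours in 96-well plates. GI50 marks 50% less growth. TGI: concentration producing complete growth inhibition.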
# Experiments:
# Assay in all cases: NCI anticancer screen, dose series, 48 h
# 786-0 renal = tested on: 786-0 renal
# A549 NSCLC = tested on: A549 NSCLC
# ACHN renal = tested on: ACHN renal
# BT-549 breast = tested on: BT-549 breast
# COLO 205 colon = tested on: COLO 205 colon
# DU-145 prostate = tested on: DU-145 prostate
# EKVX NSCLC = tested on: EKVX NSCLC
# HCC-2998 colon = tested on: HCC-2998 colon
# HCT-116 colon = tested on: HCT-116 colon
# HCT-15 colon = tested on: HCT-15 colon
# HOP-62 NSCLC = tested on: HOP-62 NSCLC
# HOP-92 NSCLC = tested on: HOP-92 NSCLC
# HS 578T breast = tested on: HS 578T breast
# HT29 colon = tested on: HT29 colon
# IGROV1 ovarian = tested on: IGROV1 ovarian
# KM12 colon = tested on: KM12 colon
# M14 melanoma = tested on: M14 melanoma
# MDA-MB-231 breast = tested on: MDA-MB-231 breast
# MDA-MB-435 = tested on: MDA-MB-435
# NCI-H23 lung = tested on: NCI-H23 lung
# NCI/ADR-RES ovarian = tested on: NCI/ADR-RES ovarian
# OVCAR-5 ovarian = tested on: OVCAR-5 ovarian
# OVCAR-8 ovarian = tested on: OVCAR-8 ovarian
# PC-3 prostate = tested on: PC-3 prostate
# SF-295 CNS = tested on: SF-295 CNS
# SF-539 CNS = tested on: SF-539 CNS
# SK-MEL-28 melanoma = tested on: SK-MEL-28 melanoma
# SK-OV-3 ovarian = tested on: SK-OV-3 ovarian
# T-47D breast = tested on: T-47D breast
# TK-10 renal = tested on: TK-10 renal
# U251 CNS = tested on: U251 CNS
# UACC-257 melanoma = tested on: UACC-257 melanoma
# UO-31 renal = tested on: UO-31 renal
# A498 renal = tested on: A498 renal
# CCRF-CEM leukemia = tested on: CCRF-CEM leukemia
# HL-60(TB) leukemia = tested on: HL-60(TB) leukemia
# K-562 leukemia = tested on: K-562 leukemia
# LOX IMVI melanoma = tested on: LOX IMVI melanoma
# MALME-3M melanoma = tested on: MALME-3M melanoma
# MOLT-4 leukemia = tested on: MOLT-4 leukemia
# NCI-H226 lung = tested on: NCI-H226 lung
# NCI-H460 lung = tested on: NCI-H460 lung
# NCI-H522 lung = tested on: NCI-H522 lung
# OVCAR-3 ovarian = tested on: OVCAR-3 ovarian
# OVCAR-4 ovarian = tested on: OVCAR-4 ovarian
# RPMI-8226 leukemia = tested on: RPMI-8226 leukemia
# RXF 393 renal = tested on: RXF 393 renal
# SF-268 CNS = tested on: SF-268 CNS
# SK-MEL-2 melanoma = tested on: SK-MEL-2 melanoma
# SK-MEL-5 melanoma = tested on: SK-MEL-5 melanoma
# SN12C renal = tested on: SN12C renal
# SNB-19 CNS = tested on: SNB-19 CNS
# SNB-75 CNS = tested on: SNB-75 CNS
# SR leukemia = tested on: SR leukemia
# SW-620 colon = tested on: SW-620 colon
# UACC-62 melanoma = tested on: UACC-62 melanoma
# CAKI-1 renal = tested on: CAKI-1 renal
# MCF7 breast = tested on: MCF7 breast
smiles,measurement,setting,value
Cc1sc2nc(-c3ccc([N+](=O)[O-])cc3)c(/C=N/N=C(N)N)n2c1C,TGI,786-0 renal,0.637 µM
same,TGI,A549 NSCLC,2.88 µM
same,TGI,ACHN renal,2.61 µM
same,TGI,BT-549 breast,2.79 µM
same,TGI,COLO 205 colon,0.809 µM
same,TGI,DU-145 prostate,2.74 µM
same,TGI,EKVX NSCLC,2.41 µM
same,TGI,HCC-2998 colon,0.693 µM
same,TGI,HCT-116 colon,0.427 µM
same,TGI,HCT-15 colon,2.82 µM
same,TGI,HOP-62 NSCLC,2.12 µM
same,TGI,HOP-92 NSCLC,2.81 µM
same,TGI,HS 578T breast,3.49 µM
same,TGI,HT29 colon,1.63 µM
same,TGI,IGROV1 ovarian,2.71 µM
same,TGI,KM12 colon,1.03 µM
same,TGI,M14 melanoma,1.99 µM
same,TGI,MDA-MB-231 breast,1.17 µM
same,TGI,MDA-MB-435,2.25 µM
same,TGI,NCI-H23 lung,2.73 µM
same,TGI,NCI/ADR-RES ovarian,11 µM
same,TGI,OVCAR-5 ovarian,2.81 µM
same,TGI,OVCAR-8 ovarian,1.8 µM
same,TGI,PC-3 prostate,2.65 µM
same,TGI,SF-295 CNS,2.42 µM
same,TGI,SF-539 CNS,3.26 µM
same,TGI,SK-MEL-28 melanoma,1.37 µM
same,TGI,SK-OV-3 ovarian,3.12 µM
same,TGI,T-47D breast,3.1 µM
same,TGI,TK-10 renal,2.84 µM
same,TGI,U251 CNS,0.358 µM
same,TGI,UACC-257 melanoma,2.77 µM
same,TGI,UO-31 renal,2.98 µM
C=C1C(=O)O[C@H]2[C@H]1CCC(/C=N/c1ncc(Br)cc1N)=C\CC[C@@]1(C)O[C@@H]21,GI50,786-0 renal,1.72 µM
same,TGI,786-0 renal,3.52 µM
same,GI50,A498 renal,4.82 µM
same,TGI,A498 renal,17.5 µM
same,GI50,A549 NSCLC,10.9 µM
same,TGI,A549 NSCLC,25.3 µM
same,GI50,ACHN renal,1.41 µM
same,TGI,ACHN renal,4.9 µM
same,GI50,BT-549 breast,1.82 µM
same,TGI,BT-549 breast,6.49 µM
same,GI50,CCRF-CEM leukemia,0.429 µM
same,TGI,CCRF-CEM leukemia,10.8 µM
same,GI50,COLO 205 colon,1.65 µM
same,TGI,COLO 205 colon,3.59 µM
same,GI50,DU-145 prostate,1.25 µM
same,TGI,DU-145 prostate,3.22 µM
same,GI50,EKVX NSCLC,2.36 µM
same,TGI,EKVX NSCLC,11.8 µM
same,GI50,HCC-2998 colon,3.56 µM
same,TGI,HCC-2998 colon,12.9 µM
same,GI50,HCT-116 colon,1.06 µM
same,TGI,HCT-116 colon,2.46 µM
same,GI50,HCT-15 colon,1.49 µM
same,TGI,HCT-15 colon,4.01 µM
same,GI50,HL-60(TB) leukemia,0.494 µM
same,TGI,HL-60(TB) leukemia,3.29 µM
same,GI50,HOP-62 NSCLC,10.8 µM
same,TGI,HOP-62 NSCLC,24 µM
same,GI50,HOP-92 NSCLC,1.31 µM
same,TGI,HOP-92 NSCLC,3.74 µM
same,GI50,HS 578T breast,5.65 µM
same,TGI,HS 578T breast,40.1 µM
same,GI50,HT29 colon,1.93 µM
same,TGI,HT29 colon,5.52 µM
same,GI50,IGROV1 ovarian,2.11 µM
same,TGI,IGROV1 ovarian,7.44 µM
same,GI50,K-562 leukemia,2.11 µM
same,TGI,K-562 leukemia,> 100 µM
same,GI50,KM12 colon,5.07 µM
same,TGI,KM12 colon,20.2 µM
same,GI50,LOX IMVI melanoma,1.71 µM
same,TGI,LOX IMVI melanoma,3.46 µM
same,GI50,M14 melanoma,1.89 µM
same,TGI,M14 melanoma,5.36 µM
same,GI50,MALME-3M melanoma,1.55 µM
same,TGI,MALME-3M melanoma,3.6 µM
same,GI50,MDA-MB-231 breast,1.38 µM
same,TGI,MDA-MB-231 breast,3.46 µM
same,GI50,MDA-MB-435,2.29 µM
same,TGI,MDA-MB-435,7.51 µM
same,GI50,MOLT-4 leukemia,2.36 µM
same,TGI,MOLT-4 leukemia,9.33 µM
same,GI50,NCI-H226 lung,2.88 µM
same,TGI,NCI-H226 lung,11.7 µM
same,GI50,NCI-H23 lung,3.18 µM
same,TGI,NCI-H23 lung,17.2 µM
same,GI50,NCI-H460 lung,5.81 µM
same,TGI,NCI-H460 lung,22.3 µM
same,GI50,NCI-H522 lung,0.781 µM
same,TGI,NCI-H522 lung,2.6 µM
same,GI50,NCI/ADR-RES ovarian,3.11 µM
same,TGI,NCI/ADR-RES ovarian,21.9 µM
same,GI50,OVCAR-3 ovarian,1.05 µM
same,TGI,OVCAR-3 ovarian,2.29 µM
same,GI50,OVCAR-4 ovarian,2.43 µM
same,TGI,OVCAR-4 ovarian,11.6 µM
same,GI50,OVCAR-5 ovarian,3.2 µM
same,TGI,OVCAR-5 ovarian,11.5 µM
same,GI50,OVCAR-8 ovarian,2.98 µM
same,TGI,OVCAR-8 ovarian,10.9 µM
same,GI50,PC-3 prostate,2.26 µM
same,TGI,PC-3 prostate,11.1 µM
same,GI50,RPMI-8226 leukemia,1.13 µM
same,TGI,RPMI-8226 leukemia,5.01 µM
same,GI50,RXF 393 renal,1.38 µM
same,TGI,RXF 393 renal,2.9 µM
same,GI50,SF-268 CNS,2.86 µM
same,TGI,SF-268 CNS,11.1 µM
same,GI50,SF-295 CNS,10.4 µM
same,TGI,SF-295 CNS,24.3 µM
same,GI50,SF-539 CNS,2.06 µM
same,TGI,SF-539 CNS,6.82 µM
same,GI50,SK-MEL-2 melanoma,1.96 µM
same,TGI,SK-MEL-2 melanoma,4.87 µM
same,GI50,SK-MEL-28 melanoma,2.37 µM
same,TGI,SK-MEL-28 melanoma,6.07 µM
same,GI50,SK-MEL-5 melanoma,1.55 µM
same,TGI,SK-MEL-5 melanoma,3.01 µM
same,GI50,SK-OV-3 ovarian,16.3 µM
same,TGI,SK-OV-3 ovarian,95.2 µM
same,GI50,SN12C renal,1.78 µM
same,TGI,SN12C renal,5.41 µM
same,GI50,SNB-19 CNS,10.1 µM
same,TGI,SNB-19 CNS,24.7 µM
same,GI50,SNB-75 CNS,3.38 µM
same,TGI,SNB-75 CNS,18 µM
same,GI50,SR leukemia,1.32 µM
same,TGI,SR leukemia,7.68 µM
same,GI50,SW-620 colon,1.33 µM
same,TGI,SW-620 colon,3.3 µM
same,GI50,T-47D breast,1.55 µM
same,TGI,T-47D breast,4.9 µM
same,GI50,TK-10 renal,1.6 µM
same,TGI,TK-10 renal,3.19 µM
same,GI50,U251 CNS,5.06 µM
same,TGI,U251 CNS,18.1 µM
same,GI50,UACC-257 melanoma,1.8 µM
same,TGI,UACC-257 melanoma,4.45 µM
same,GI50,UACC-62 melanoma,1.87 µM
same,TGI,UACC-62 melanoma,4.22 µM
same,GI50,UO-31 renal,1.28 µM
same,TGI,UO-31 renal,2.63 µM
COC(=O)CN1SC2(SC13C(C)(C)C(=O)C3(C)C)C(C)(C)C(=O)C2(C)C,TGI,786-0 renal,> 100 µM
same,TGI,A498 renal,> 100 µM
same,TGI,A549 NSCLC,> 100 µM
same,TGI,ACHN renal,> 100 µM
same,TGI,BT-549 breast,90.3 µM
same,TGI,CAKI-1 renal,> 100 µM
same,TGI,CCRF-CEM leukemia,32.8 µM
same,TGI,COLO 205 colon,> 100 µM
same,TGI,DU-145 prostate,> 100 µM
same,TGI,EKVX NSCLC,> 100 µM
same,TGI,HCC-2998 colon,> 100 µM
same,TGI,HCT-116 colon,> 100 µM
same,TGI,HCT-15 colon,> 100 µM
same,TGI,HOP-62 NSCLC,> 100 µM
same,TGI,HOP-92 NSCLC,21.3 µM
same,TGI,HS 578T breast,> 100 µM
same,TGI,HT29 colon,> 100 µM
same,TGI,IGROV1 ovarian,> 100 µM
same,TGI,K-562 leukemia,> 100 µM
same,TGI,KM12 colon,> 100 µM
same,TGI,LOX IMVI melanoma,> 100 µM
same,TGI,M14 melanoma,> 100 µM
same,TGI,MALME-3M melanoma,> 100 µM
same,TGI,MCF7 breast,> 100 µM
same,TGI,MDA-MB-231 breast,> 100 µM
same,TGI,MDA-MB-435,> 100 µM
same,TGI,MOLT-4 leukemia,> 100 µM
same,TGI,NCI-H226 lung,93.8 µM
same,TGI,NCI-H23 lung,> 100 µM
same,TGI,NCI/ADR-RES ovarian,87.8 µM
same,TGI,OVCAR-3 ovarian,> 100 µM
same,TGI,OVCAR-4 ovarian,> 100 µM
same,TGI,OVCAR-5 ovarian,> 100 µM
same,TGI,OVCAR-8 ovarian,> 100 µM
same,TGI,PC-3 prostate,> 100 µM
same,TGI,RPMI-8226 leukemia,> 100 µM
same,TGI,SF-268 CNS,> 100 µM
same,TGI,SF-295 CNS,> 100 µM
same,TGI,SF-539 CNS,> 100 µM
same,TGI,SK-MEL-2 melanoma,> 100 µM
same,TGI,SK-MEL-28 melanoma,> 100 µM
same,TGI,SK-MEL-5 melanoma,> 100 µM
same,TGI,SK-OV-3 ovarian,> 100 µM
same,TGI,SN12C renal,> 100 µM
same,TGI,SNB-19 CNS,> 100 µM
same,TGI,SNB-75 CNS,> 100 µM
same,TGI,SR leukemia,> 100 µM
same,TGI,SW-620 colon,> 100 µM
same,TGI,T-47D breast,> 100 µM
same,TGI,TK-10 renal,> 100 µM
same,TGI,U251 CNS,> 100 µM
same,TGI,UACC-257 melanoma,> 100 µM
same,TGI,UACC-62 melanoma,> 100 µM
same,TGI,UO-31 renal,> 100 µM
